Where two headings read alike, the source gives them in different places.
Experiments:
[1] = for Stable Constant: coordination compound of L-threonic acid and chromic ion, deduced with computer simulation from titration curves; for pH: pH range of the coordination compound model, deduced with computer simulation
[2] = Precipitation of chromic hydroxide as a function of pH; assay type: physicochemical

For O=C(O)[C@H](O)[C@@H](O)CO.[O]=[Cr](=[O])([OH])[OH] [Model A, chromate L-threonate], the “Stable Constant” value ([1]; listed as A) was −4.42 ± 0.14 and the pH ([1]; listed as A) was “˜4.5”.
In the case of O=C(O)[C@H](O)[C@@H](O)CO.[O]=[Cr](=[O])([OH])[OH] [Model B, chromate L-threonate], the “Stable Constant” value ([1]; listed as B) is reported as −0.74 ± 0.34 and the pH ([1]; listed as B) is reported as 3.5-4.0.
In the case of O=C(O)[C@H](O)[C@@H](O)CO.[O]=[Cr](=[O])([OH])[OH] [Model C, chromate L-threonate], the “Stable Constant” value ([1]; listed as C) is reported as −9.35 ± 0.26 and the pH ([1]; listed as C) is reported as “˜6.0”.
In the case of O=C(O)[C@H](O)[C@@H](O)CO.[O]=[Cr](=[O])([OH])[OH] [chromate L-threonate], the “precipitate of chromic hydroxide” value ([2]; even in basic condition) is reported as “no precipitate”, the dissolution (in alcohol and ether) is reported as “no dissolution” and the dissolution (in water) is reported as “dissolution in water”.
For [Cl][Cr]([Cl])[Cl] [chromic chloride], the “pH at which solution forms precipitate” value [2] was roughly 4.
In the case of O=S(=O)([O-])[O-].O=S(=O)([O-])[O-].O=S(=O)([O-])[O-].[Cr+3].[Cr+3] [chromic sulphate], the “pH at which solution forms precipitate” value [2] is reported as roughly 4.
